Reference: patent US7335776B2, “Remedies for depression containing EP1 antagonist as the active ingredient” (Ono Pharmaceutical Co., Ltd., priority 2002, dated 2008)

Experiments:
male ddy mice = assay: Tail-suspension test in mice; assay type: in vivo; details: for Inhibition (%): inhibition of immobility vs. vehicle; for Inhibition (%) / Immobility time: 10 mg/kg orally 1 hour before measurement, ten animals per group; for Immobility time / Immobility time as compared with that in the vehicle treated group: tail suspension; for Immobility time: immobility time for 10 minutes; for Immobility time as compared with that in the vehicle treated group: rate of inhibition statistically significant
Description: It was confirmed by the following experiments that the compounds of formula of (IA)-(IK) could be useful for the treatment of depression. The following paper can be referred to about a tail-suspension test and its testing system in mice. • 1) Psychopharmacology (1985) 85: 367-370 • 2) Prog. Neuro-Psychopharmacol. & Biol. Psychiat. 1987 Vol. 11, 659-671 (1) Tail-Suspension Test in Mice
The test compound (10 mg/kg animal body weight) was administered orally to male ddy mice weighing around 30 g 1 hour before the beginning of measurement. The mice were suspended by their tail on the hook of Tail Suspension TEST System (Neuroscience, Inc., Model NS-TST01-SS2) using adhesive tape. The subsequent immobility time for 10 minutes was measured. If the mice have none of administration, they get about 300 seconds as an immobility time in this experiment. Generally, the medicine having an anti-depressive action shortens this immobility time.
In addition, in any case, ten animals were used for each group.

male SD (IGS) rat = assay: Forced swim test in rats; assay type: in vivo; details: for Immobility time / Immobility time as compared with that in the vehicle treated group: forced swim; for Immobility time: 5 minutes observation on 2nd day; for Immobility time / Inhibition (%): test compound orally 5 mL/kg (desipramine intraperitoneally 2 mL/kg) after 1st examination and 1 hour before 2nd, twelve animals per group; for Immobility time as compared with that in the vehicle treated group: rate of inhibition statistically significant; for Inhibition (%): inhibition of immobility vs. vehicle
Description: The seven-week old male SD (IGS) rat freely fed was solely put into the forced swimming equipment (the cylinder (Neuroscience, Inc.) of diameter of inner 19 cm, and height 40 cm, depth-sounding 17 cm, water temperature of 23±1° C.) manufactured with the transparent acrylics board, and let it swim for 15 minutes. The rat was immediately dried after the end of trial and was returned to the home cage. […] In this time, the behavior of rat is distinguished by immobile state, struggling, submerging and swimming. The immobility time, period that rats were floating on the water by taking their head outside of the water without stroking by both legs, were measured. In addition, the water in equipment was exchanged for every trial. Moreover, one trial was conducted for each animal.
The test compound was administered orally by 5 mL/kg dosage immediately after the end of the examination on the 1st, and 1 hour before the examination on the 2nd. And, the positive control compound (desipramine; […]) was similarly administered intraperitoneally by 2 mL/kg dosage immediately after the end of the examination on the 1st, and 1 hour before the examination on the 2nd.
In addition, in any case, twelve animals were used for each group.

[1] = Toxicity (LD50 by oral administration to mouse); details: in vivo
Description: The toxicity of the compounds of the present invention is very low and therefore, it is confirmed that these compounds are safe for use as medicine. For example, LD50 values of the compound A and B of the present invention by oral administration to mouse are 2000 mg/kg and over.

SMILES | Inhibition (%) (male ddy mice) | Immobility time (male ddy mice) [s] | Immobility time as compared with that in the vehicle treated group (male ddy mice) | Immobility time (male SD (IGS) rat) [s] | Immobility time as compared with that in the vehicle treated group (male SD (IGS) rat) | Inhibition (%) (male SD (IGS) rat) | LD50 [1] [mg/kg]
Cc1cc(Cl)ccc1S(=O)(=O)NC[C@H]1C2CCC(CC2)[C@H]1/C=C\CCCC(=O)O [Compound A, 6-[(2S, 3S)-3-(4-chloro-2-methylphenylsulfonylaminomethyl)-bicyclo[2.2.2]octan-2-yl]-5Z-hexenoic acid] | 30 ± 7 | 202 ± 20 | shortened | – | – | – | –
Cc1ccc(S(=O)(=O)N(c2ccc(C(F)(F)F)cc2OCc2ccc(C(=O)O)cc2)C(C)C)o1 [Compound B, 4-[2-[N-isopropyl-N-(5-methyl-2-furylsulfonyl)amino]-5-trifluoromethylphenoxymethyl]benzoic acid] | 35 ± 8 | 194 ± 23 | shortened | 163 ± 21 | shortened | 31 ± 9 | ≥ 2000
CC(C)CN(c1ccc(C(F)(F)F)cc1OCc1ccc(C=CC(=O)O)cc1)S(=O)(=O)c1ccco1 [Compound C, 4-[2-(N-isobutyl-2-furanylsulfonylamino)-5-trifluoromethylphenoxymethyl]cinnamic acid] | 23 ± 7 | 212 ± 20 | shortened | – | – | – | –
Cc1ccc(S(=O)(=O)N(CC(C)C)c2cc(C)c(C)cc2OCc2ccc(C(=O)O)cc2)o1 [Compound D, 4 [2-[N-isobutyl-N-(5-methyl-2-furylsulfonyl)amino]-4,5-dimethylphenoxymethyl]benzoic acid] | 27 ± 8 | 217 ± 24 | shortened | – | – | – | –
Cc1ccc(S(=O)(=O)N(CC(C)C)c2cc(C)c(C)cc2OCc2ccc(C(=O)O)cc2C)o1 [Compound E, 3-methyl-4-[2-[N-isobutyl-N-(5-methyl-2-furylsulfonyl)amino]4,5-dimethylphenoxymethyl]benzoic acid] | 38 ± 12 | 185 ± 36 | shortened | – | – | – | –
Cc1ccc(S(=O)(=O)N(CC(C)C)c2cc3c(cc2OCc2ccc(/C=C/C(=O)O)cc2)CCC3)o1 [Compound F, 4-[6-[N-isobutyl-N-(5-methyl-2-furylsulfonyl)amino]indan-5-yloxymethyl]cinnamic acid] | 47 ± 9 | 160 ± 26 | shortened | – | – | – | –
CCCN(c1cc(C)c(C)cc1OCc1ccc(C(=O)O)cc1)S(=O)(=O)c1ccc(C)o1 [Compound H, 4-[4,5-dimethyl-2-[N-(5-methyl-2-furylsulfonyl)-N-propylamino]phenoxymethyl]benzoic acid] | – | – | – | 156 ± 21 | shortened | 35 ± 9 | –
Cc1ccc(C(=O)N(c2ccc(C(F)(F)F)cc2OCc2ccc(/C=C/C(=O)O)cc2)C(C)C)o1 [Compound J, 4-[5-trifluoromethyl-2-[N-(5-methyl-2-furylcarbonyl)-N-isopropylamino]phenoxymethyl]cinnamic acid] | – | – | – | 194 ± 16 | shortened | 20 ± 7 | –
Cc1csc(S(=O)(=O)N(CC(C)C)c2cc3c(cc2OCc2ccc(C(=O)O)cc2)CCC3)n1 [Compound K, 4-[6-[N-isobutyl-N-(4-methyl-2-thizolylsulfonyl)amino]indan-5-yloxymethyl]benzoic acid] | – | – | – | 172 ± 17 | shortened | 29 ± 7 | –
CNCCCN1c2ccccc2CCc2ccccc21 [Desipramine, desipramine, reference compound] | – | – | – | 112 ± 15 | – | 53 ± 6 | –
